Consider 1 molecule from US9834525B2, “Inhibitors of paxillin function and related compositions and methods” (UNIVERSITY OF TENNESSEE RESEARCH FOUNDATION, priority 2015, dated 2017).

Entries after “also recorded” stand apart in the source; their conditions may differ.

In series [1] the test system is retinal endothelial cells (REC). Nature of the series: transwell (Boyden chamber) cell migration assay, VEGF-stimulated RECs. As to conditions: 24 hours of VEGF stimulation; +100, +500 nM. The format is cell-based, human. Here is the method:
Two methods of evaluating VEGF-induced REC migration were used to assess the impact of compound (II-4) on paxillin-mediated migration: the scratch assay and the transwell (Boyden chamber) cell migration assay. To test if paxillin inhibition would reduce VEGF-induced REC migration, RECs were wounded and treated with VEGF ([…]) +/− compound (II-4) ([…]). Wound closure was monitored by phase microscopy over 24 hours and area of wound closure was calculated using the sophisticated image analysis tools in Adobe Photoshop. Cells were then fixed and nuclei were stained using DAPI to show extent of cell migration.
Compound (II-4) was further investigated around these concentrations using the transwell migration assay (FIG. 17B).
FIG. 17: REC migration. A) Increasing concentrations of compound (II-4) inhibit VEGF-induced migration in a scratch wound assay; [Serum Free-control, VEGF (100 ng/mL), VEGF+100 nM, 500 nM, 10 μM, 100 μM] (IC50≈180 ηM; n=6/group). Cells were stained with DAPI for representative images. B) RECs seeded onto transwell membranes were stimulated with VEGF+ vehicle or compound (II-4) for 24 hrs. Cells were removed from the topside of membrane and migrated cells were stained with DAPI [Serum-Free (SF), VEGF, +100, +500 nM, respectively]. Cell number was measured using fluorescence microscopy. All data are mean±SD (*, # P<0.001)

In series [2] the test system is FAK (Y397, Y576/577, Y925). Nature of the series: Western blot of VEGF-induced FAK phosphorylation in REC. The format is cell-based, human. As to conditions: REC under VEGF; compound (II-4) 500 nM, SU6656 1 μM. Here is the method: REC, Mel 270, OMM 2.5 under Hepatocyte Growth Factor (HGF) or Vascular Endothelial Growth Factor (VEGF) stimulation conditions: Cell lysates were collected in RIPA lysis buffer (50 mM Tris-HCl, pH 7.4, 150 mM NaCl, 2 mM EDTA, 1% Nonidet P-40, 0.1% SDS) with protease 1× inhibitor cocktail (Roche; Indianapolis, Ind.). Lysates were kept on ice and centrifuged at 10,000×g×10 minutes and total protein was measured using the BCA assay (Pierce, Rockford, Ill.). Protein samples were mixed with 4×LDS loading buffer with 2.5% 2-mercaptoethanol (Sigma-Aldrich), heated to 70° C. for 10 minutes, and loaded on NuPAGE 4-12% Bis-Tris gel (Invitrogen, Carlsbad, Calif.). Immunoblotting was performed with nitrocellulose membranes (Bio-Rad, Hercules, Calif.) at 170-mA start and 110-mA end at 25 V for two hours in NuPAGE transfer buffer (Invitrogen) containing 20% methanol. Membranes were blocked using Odyssey blocking buffer (LI-COR; Lincoln, Nebr.) for one hour at room temperature with gentle shaking Membranes were then incubated at 4° C. with specific primary antibodies (1:1000) overnight. Cellular protein was normalized using rabbit-GAPDH or mouse-α-Tubulin [1:20,000] (Cell Signaling, Danvers, Mass.; LI-COR, respectively). […] Dual-channel infrared scan and quantitation of immunoblots were conducted using the ODYSSEY Sa infrared imaging system with Image Studio (Ver. 3.1.4) (LI-COR). […]
On the technique in general: In western blotting, separated proteins are transferred to a membrane and probed.

In series [3] the target is T1, CYP3A4 (Homo sapiens, UniProt P08684).
T1 construct: from tissue; host or cells: pooled human liver microsomes
The experiment in a line: CYP-450 interaction study in pooled human liver microsomes, CYP3A4. The format is in vitro ADME. As to conditions: 1 μM. On the procedure: CYP-450 interaction studies were conducted in pooled human liver microsomes (FIG. 8). CYP-450 inhibition (%) by compound (II-4) (1 μM) was compared to control inhibitors (1 μM) for the most common CYP-450 isoforms, CYP3A4, CYP2C9, CYP2D6, CYP2C19, and CYP1A2.
CYP-450 interaction studies were conducted in pooled human liver microsomes (FIG. 24). CYP-450 inhibition (%) by compound (II-4) (1 μM) was compared to control inhibitors (1 μM) for the most common CYP-450 isoforms, 3A4, 2C9, 2D6, 2C19, and 1A2.
Background: Liver microsomes are vesicles of endoplasmic reticulum, rich in cytochrome P450 enzymes.

T1 sequence (P08684 whole entry): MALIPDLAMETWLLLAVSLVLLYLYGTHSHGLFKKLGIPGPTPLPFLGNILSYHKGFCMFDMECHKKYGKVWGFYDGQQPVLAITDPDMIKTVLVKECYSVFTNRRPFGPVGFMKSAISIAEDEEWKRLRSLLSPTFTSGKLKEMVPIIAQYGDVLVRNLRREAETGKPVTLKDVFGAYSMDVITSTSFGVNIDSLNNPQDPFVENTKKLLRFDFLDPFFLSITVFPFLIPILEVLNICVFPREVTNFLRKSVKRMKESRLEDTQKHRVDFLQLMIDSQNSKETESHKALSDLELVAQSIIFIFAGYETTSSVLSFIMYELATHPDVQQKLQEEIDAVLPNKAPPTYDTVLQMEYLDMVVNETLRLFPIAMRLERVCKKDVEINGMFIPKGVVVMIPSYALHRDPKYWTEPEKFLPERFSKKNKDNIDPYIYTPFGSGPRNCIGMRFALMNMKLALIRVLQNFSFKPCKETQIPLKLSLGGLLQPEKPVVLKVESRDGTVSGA

`COc1cc(C2OC(=O)Nc3c2ccc2ccccc32)cc(OC)c1OC` (stereo not drawn) [compound II-4]: the “migration of RECs in transwell migration assay” value in series [1] was “significant decrease”. The “VEGF-induced FAK activation (Y397, Y925)” value in series [2] is “independent of both FAK Y397 autophosphorylation and Src-driven FAK Y925; also recorded: not FAK Y925 activation”. In addition, in series [3], the “CYP-450 inhibition, CYP3A4” value is reported as “lack of significant inhibition; also recorded: lacks significant inhibition”.
